Laboratory results from patent publication US9125406B2, “Methods and compositions for control of cabbage looper, trichoplusia ni” (Simon Fraser University, priority 2008, dated 2015).
Where two headings read alike, the source gives them in different places. Marks after values point to notes of the source that are not given here.

Legend:
[1] = system: third instar T. ni larvae; experiment: Leaf disk choice feeding deterrence bioassay; type: in vivo, Trichoplusia ni
Source text: Cabbage plants (Brassica oleraceae var. Stonehead) used in the bioassays were routinely grown in plastic pots with a mixture of sandy loam soil and peat moss (4:1) in a greenhouse at the University of British Columbia, Vancouver, BC, Canada. Leaves were collected from cabbage plants that were 5-6 weeks old.
T. ni larvae and moths were obtained from a long established colony (>50 generations) maintained on an artificial diet, Velvetbean Caterpillar Diet No. F9796 [Bio-Sery Inc. (Frenchtown, NIL)] in the insectary of the University of British Columbia (UBC).
(§1) Initial screening for feeding deterrent effects was conducted at 50 μg/cm^2 in feeding deterrent bioassays.
Larvae were given the choice of feeding on two leaf disks, one treated with 10 μL of a solution of the test substance painted on each side and the other treated with a carrier solvent alone. The number of larvae was 25 per treatment.
Feeding deterrence data (percent) for initial screening concentration were analyzed by analysis of variance (ANOVA) after arcsin transformation using statistics software (Statistix 7. Analytical Software, Statistix 7 for Windows 95, 98, NT, 2000. Analytical Software, Tallahassee).

[2] = system: third instar T. ni larvae; experiment: whole plant or invertebrate; conditions: for mortality at 0.25 %: Trichoplusia, topical, 24 h
Method: as §1
Mortality was determined 24 h after spraying larvae directly with test solutions. Third instar T. ni larvae were sprayed in 90 mm×15 mm Petri dishes (Falcon) lined with Fisher Scientific filter paper (90 mm diameter). Small plastic hand spraying bottles (50 mL capacity) were used. Larvae were then transferred to Petri dishes (90 mm×15 mm) with a small piece of artificial diet. Each Petri dish contained 10 larvae. Three replicates, each consisting of 10 larvae, were used per treatment.

[3] = system: T. ni moths; experiment: Oviposition choice (deterrence) bioassay on cabbage leaves; type: in vivo, Trichoplusia ni; conditions: Trichoplusia, 48 h, Table 5; oviposition deterrence at 0.25%, 48 h; read-out: OD (%), mean ± SE (n = 25-33)
Method: as §1
T. ni larvae were reared on normal diet from neonates (<24 h old) until pupation. Pupae were sexed and put in separate plastic containers until emergence. After eclosion, pairs of moths (one male and one female) were introduced into each cage with a control and a treated cabbage leaf. Pairs of moths (n=25) were used per treatment. Each leaf (approximately 100-110 cm^2) was sprayed with 0.5 mL of MeOH or a methanolic solution of the test chemical on each side. Eggs were counted on each cabbage leaf after 48 h.

[4] = system: T. ni moths; experiment: as above; type: in vivo, Trichoplusia ni; conditions: Trichoplusia, 48 h, Table 8; at 0.25%; read-out: OD (%) Mean ± SE N = 35-40
[5] = Trichoplusia, foliar, Table 5, 1,2-dialkoxybenzenes, feeding deterrence at 50 μg/cm^2, read-out: FD (%), mean ± SE (n = 25)
[6] = Trichoplusia, foliar, Table 4, 1,3-dialkoxybenzenes, feeding deterrence at 50 μg/cm^2, read-out: FD (%), mean (SE (n = 25))
[7] = Table 3, 1,4-dialkoxybenzenes, feeding deterrence at 50 μg/cm^2
[8] = Trichoplusia, foliar, Table 3, 1,4-dialkoxybenzenes, feeding deterrence at 50 μg/cm^2, read-out: FD (%), mean ± SE (n = 25)
[9] = read-out: mortality (%) (n = 3 × 10), Table 5

COc1ccccc1O [1-hydroxy-2-methoxybenzene]
pest or weed control at 50 µg/cm2, 50 µg/cm2 [1, 5]: -7.5%

CCOc1ccccc1O [2a{2}, 2-Ethoxy phenol]
pest or weed control at 50 µg/cm2, 50 µg/cm2 [1, 5]: -5.3%

CCCOc1ccccc1O [2a{3}, 2-Propoxy phenol]
pest or weed control at 50 µg/cm2, 50 µg/cm2 [1, 5]: -12 ± 20%

CCCCOc1ccccc1O [2a{4}, 2-Butoxy phenol]
pest or weed control at 50 µg/cm2, 50 µg/cm2 [1, 5]: 12 ± 20.3%

C=CCOc1ccccc1O [2a{6}, 2-Allyloxy phenol]
pest or weed control at 50 µg/cm2, 50 µg/cm2 [1, 5]: 31.1 ± 15.5%

COc1cccc(O)c1 [2b{1}, 3-Methoxy phenol]
pest or weed control at 50 µg/cm2, 50 µg/cm2 [1, 6]: 44.7 ± 17.5%

CCOc1cccc(O)c1 [2b{2}, 3-Ethoxy phenol]
pest or weed control at 50 µg/cm2, 50 µg/cm2 [1, 6]: -18.7 ± 17.8%

CCCOc1cccc(O)c1 [2b{3}, 3-Propoxy phenol]
pest or weed control at 50 µg/cm2, 50 µg/cm2 [1, 6]: 4 ± 20.4%

CC(C)CCOc1cccc(O)c1 [2b{4}, 3-(3-Methyl-butyloxy)phenol]
pest or weed control at 50 µg/cm2, 50 µg/cm2 [1, 6]: -5.8 ± 18.7%

COc1ccc(O)cc1 [2c{1}, 4-Methoxy phenol]
FD (%), mean ± SE (n = 25) [1, 7]: feeding stimulants
pest or weed control at 50 µg/cm2, 50 µg/cm2 [1, 8]: -26.5 ± 18.6%

CCOc1ccc(O)cc1 [2c{2}, 4-Ethoxy phenol]
FD (%), mean ± SE (n = 25) [1, 7]: weak feeding deterrent
pest or weed control at 50 µg/cm2, 50 µg/cm2 [1, 8]: 29.8 ± 18.2%

CCCOc1ccc(O)cc1 [2c{3}, 4-Propoxy phenol]
FD (%), mean ± SE (n = 25) [1, 7]: feeding stimulants
pest or weed control at 50 µg/cm2, 50 µg/cm2 [1, 8]: -28 ± 18.4%

CC(C)CCOc1ccc(O)cc1 [2c{5}, 4-(3-Methyl-butyloxy)phenol]
pest or weed control at 50 µg/cm2, 50 µg/cm2 [1, 8]: 29.5 ± 16.6%

COc1ccccc1OC [3a{1,1}, 1,2-Dimethoxy benzene]
pest or weed control at 50 µg/cm2, 50 µg/cm2 ([1]; Trichoplusia, foliar, read-out: FD (%), mean ± SE (n = 25)): 26 ± 17.6%

CCOc1ccccc1OCC [3a{2,2}, 1,2-Diethoxy benzene]
pest or weed control at 50 µg/cm2, 50 µg/cm2 [1, 5]: -2.1%

CCCOc1ccccc1OCCC [3a{3,3}, 1,2-Dipropoxy benzene]
pest or weed control at 50 µg/cm2, 50 µg/cm2 [1, 5]: 26.2 ± 17.6%

C=CCOc1ccccc1OCCC [3a{3, 6}, 1-allyloxy-2-propoxybenzene]
pest or weed control at 50 µg/cm2, 50 µg/cm2 ([1]; Trichoplusia, foliar, Table 8, 50 μg/cm^2, read-out: F.D (%) Mean ± SE N = 25): 96 ± 3%
pest or weed control at 50 µg/cm2 ([1]; Trichoplusia, foliar, feeding deterrence (FD), Table 12, non-toxic feeding deterrents, read-out: % deterrence): 96%
DC50 ([1]; feeding deterrence DC50, unit not given in Table 12): 12-16 ^a μg/cm^2
mortality at 0.25 % ([2]; read-out: Mortality (%) N = 3 × 10, Table 8): 17%
% mortality ([2]; contact toxicity to larvae, negative or zero values replaced by 0.1 for the index (footnote b)): 10-17 ^a %

CCCCOc1ccccc1OCCCC [3a{4,4}, 1,2-Dibutoxy benzene]
pest or weed control at 0.25 % [3]: 19.6%
pest or weed control at 50 µg/cm2, 50 µg/cm2 [1, 5]: 56.4 ± 13.8%
mortality at 0.25 % [2, 9]: 10%

CC(C)CCOc1ccccc1OCCC(C)C [3a{5,5}, 1,2-Di-(3-methyl-butyloxy)benzene]
pest or weed control at 0.25 % [3]: 11.5%
pest or weed control at 50 µg/cm2, 50 µg/cm2 [1, 5]: 69.9 ± 11.5%
mortality at 0.25 % [2, 9]: 40%

C=CCOc1ccccc1OCCC(C)C [3a{5, 6}, 1-allyloxy-2-isopentoxybenzene]
pest or weed control at 0.25 % [4]: 26 ± 13.5%
